In ChEMBL document CHEMBL1201862, “PubChem BioAssay data set” (2004):
Active and inactive are the calls of the source.

Legend:
[1] = target: T1, Sentrin-specific protease 8 (Homo sapiens, UniProt Q96LD8); format: functional;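 further: luminescence read-out of SENP8 inhibition, dose-response confirmation following an ultra-high-throughput screen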
T1 sequence (Q96LD8 whole entry): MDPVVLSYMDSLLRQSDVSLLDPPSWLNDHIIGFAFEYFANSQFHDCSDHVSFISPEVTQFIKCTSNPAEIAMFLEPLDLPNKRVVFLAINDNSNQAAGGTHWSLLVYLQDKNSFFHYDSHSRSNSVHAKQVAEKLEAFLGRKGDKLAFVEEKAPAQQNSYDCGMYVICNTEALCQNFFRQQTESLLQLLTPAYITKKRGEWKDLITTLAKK

[2] = target: T1, Sentrin-specific protease 8; experiment: SENP8 protease inhibitors, SAR follow-up, biochemical, luminescence (AID 504501); format: functional
[3] = target: Dual specificity protein kinase CLK2 (Homo sapiens, UniProt P49760); format: functional
[4] = target: Death-associated protein kinase 3 (Homo sapiens, UniProt O43293); format: functional;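 further: measured as one member of a kinome-wide profiling panel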
[5] = target: Serine/threonine-protein kinase TAO1 (Homo sapiens, UniProt Q7L7X3); format: functional
[6] = target: Mitogen-activated protein kinase kinase kinase kinase 2 (Homo sapiens, UniProt Q12851); format: functional;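 further: measured as one member of a kinome-wide kinase panel, with MAP4K2 as the panel entry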
[7] = target: Hepatocyte growth factor receptor (Homo sapiens, UniProt P08581); format: functional;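 further: kinase panel profiling across the kinome, with MET as the panel member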
[8] = target: Tyrosine-protein kinase ABL1 (Homo sapiens, UniProt P00519); format: functional
[9] = target: Vascular endothelial growth factor receptor 2 (Homo sapiens, UniProt P35968); format: functional
[10] = target: cAMP-dependent protein kinase catalytic subunit PRKX (Homo sapiens, UniProt P51817); format: functional
[11] = target: Leucine-rich repeat serine/threonine-protein kinase 2 (Homo sapiens, UniProt Q5S007); format: functional;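 further: value from a broad kinome-wide panel profiling study in which LRRK2 was one of the kinases tested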
[12] = target: Glycogen synthase kinase-3 beta (Homo sapiens, UniProt P49841); format: functional;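 further: value comes from a broad kinome profiling panel, with GSK3B as the panel member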
[13] = target: Dual specificity tyrosine-phosphorylation-regulated kinase 1A (Homo sapiens, UniProt Q13627); format: functional;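 further: measured against DYRK1A as one member of a broad kinome profiling panel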
[14] = target: Leukocyte tyrosine kinase receptor (Homo sapiens, UniProt P29376); experiment: Navigating the Kinome. Panel member name: LTK; format: functional
[15] = target: Dual specificity protein phosphatase 3 (Homo sapiens, UniProt P51452); experiment: VHR1 phosphatase inhibitors, primary screen, biochemical, absorbance, uHTS (AID 1654)
ORF 73 = target: T2, ORF 73 (Human herpesvirus 8, UniProt O40947); experiment: inhibitors of C-LANA binding to LBS DNA, dose response, biochemical, fluorescence polarization, cherry-picked samples (AID 504725); design: species or system Human gammaherpesvirus 8;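 further: fluorescence polarization of a labeled DNA duplex reporting LANA DNA binding; potency is for inhibitors that block LANA binding to the DNA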
T2 sequence (O40947 whole entry): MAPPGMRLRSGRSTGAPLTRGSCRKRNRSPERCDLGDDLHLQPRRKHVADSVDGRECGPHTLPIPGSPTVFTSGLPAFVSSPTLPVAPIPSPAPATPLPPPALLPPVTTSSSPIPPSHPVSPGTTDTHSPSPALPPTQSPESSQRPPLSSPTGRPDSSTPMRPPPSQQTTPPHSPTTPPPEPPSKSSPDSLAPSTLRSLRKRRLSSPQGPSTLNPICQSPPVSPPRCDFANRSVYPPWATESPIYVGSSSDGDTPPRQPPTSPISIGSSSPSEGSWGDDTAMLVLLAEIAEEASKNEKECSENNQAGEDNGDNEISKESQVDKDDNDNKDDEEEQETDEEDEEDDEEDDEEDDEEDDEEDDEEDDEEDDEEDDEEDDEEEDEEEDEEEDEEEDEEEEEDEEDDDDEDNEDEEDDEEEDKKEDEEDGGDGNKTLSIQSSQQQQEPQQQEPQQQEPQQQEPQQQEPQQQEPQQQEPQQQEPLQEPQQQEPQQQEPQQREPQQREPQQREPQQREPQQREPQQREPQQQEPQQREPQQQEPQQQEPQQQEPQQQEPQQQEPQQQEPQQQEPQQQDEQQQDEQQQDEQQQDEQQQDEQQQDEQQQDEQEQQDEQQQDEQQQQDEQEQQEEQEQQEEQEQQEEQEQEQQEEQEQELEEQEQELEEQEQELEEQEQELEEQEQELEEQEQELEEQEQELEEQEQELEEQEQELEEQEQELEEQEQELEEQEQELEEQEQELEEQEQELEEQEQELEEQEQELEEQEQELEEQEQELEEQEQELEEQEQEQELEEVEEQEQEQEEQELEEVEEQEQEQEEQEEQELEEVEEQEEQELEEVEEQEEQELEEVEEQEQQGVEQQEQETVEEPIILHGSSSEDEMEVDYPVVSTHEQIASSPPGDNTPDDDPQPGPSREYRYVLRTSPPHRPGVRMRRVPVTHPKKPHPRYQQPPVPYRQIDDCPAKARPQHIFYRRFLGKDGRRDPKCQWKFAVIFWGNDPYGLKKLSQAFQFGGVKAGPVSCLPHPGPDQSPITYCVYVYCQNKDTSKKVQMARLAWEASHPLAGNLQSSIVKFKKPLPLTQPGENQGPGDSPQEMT

Nonstructural protein 1 = Nonstructural protein 1 (Influenza A virus, UniProt Q194T2); format: functional, Influenza A virus (A/California/07/2009(H1N1))
[16] = activation of PKA-R1A holoenzyme dissociation, dose response, counter-screen for PKA-R2B activator project, biochemical, Cy5-IP20 fluorescence polarization, 1536-well, triplicate (AID 504896)
[17] = Fluorescence polarization-based biochemical high throughput dose response assay for activators of the Protein Kinase A-R2B (PKA-R2B) complex. [Related pubchem assays (depositor defined):AID504700, AID504704, AID504796, AID504797]
HEK293 = experiment: optical interference in Abeta FP readout, dose response, artefact control for IDE activator project, biochemical, fluorescence polarization (AID 588442); format: functional, cell-based; settings: Homo sapiens

Sequence of Glycogen synthase kinase-3 beta (P49841 whole entry): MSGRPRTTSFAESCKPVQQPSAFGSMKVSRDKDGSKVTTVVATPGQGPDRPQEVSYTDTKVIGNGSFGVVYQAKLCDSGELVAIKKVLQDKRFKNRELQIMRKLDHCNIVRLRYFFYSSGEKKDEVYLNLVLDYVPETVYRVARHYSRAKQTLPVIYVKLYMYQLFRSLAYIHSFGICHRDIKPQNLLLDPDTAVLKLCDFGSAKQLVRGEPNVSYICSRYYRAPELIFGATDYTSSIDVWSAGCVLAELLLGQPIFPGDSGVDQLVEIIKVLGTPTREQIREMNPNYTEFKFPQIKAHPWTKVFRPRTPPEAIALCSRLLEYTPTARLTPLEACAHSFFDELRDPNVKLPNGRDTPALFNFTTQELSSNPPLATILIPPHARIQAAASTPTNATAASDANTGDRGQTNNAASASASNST
Sequence of Leucine-rich repeat serine/threonine-protein kinase 2 (Q5S007 whole entry): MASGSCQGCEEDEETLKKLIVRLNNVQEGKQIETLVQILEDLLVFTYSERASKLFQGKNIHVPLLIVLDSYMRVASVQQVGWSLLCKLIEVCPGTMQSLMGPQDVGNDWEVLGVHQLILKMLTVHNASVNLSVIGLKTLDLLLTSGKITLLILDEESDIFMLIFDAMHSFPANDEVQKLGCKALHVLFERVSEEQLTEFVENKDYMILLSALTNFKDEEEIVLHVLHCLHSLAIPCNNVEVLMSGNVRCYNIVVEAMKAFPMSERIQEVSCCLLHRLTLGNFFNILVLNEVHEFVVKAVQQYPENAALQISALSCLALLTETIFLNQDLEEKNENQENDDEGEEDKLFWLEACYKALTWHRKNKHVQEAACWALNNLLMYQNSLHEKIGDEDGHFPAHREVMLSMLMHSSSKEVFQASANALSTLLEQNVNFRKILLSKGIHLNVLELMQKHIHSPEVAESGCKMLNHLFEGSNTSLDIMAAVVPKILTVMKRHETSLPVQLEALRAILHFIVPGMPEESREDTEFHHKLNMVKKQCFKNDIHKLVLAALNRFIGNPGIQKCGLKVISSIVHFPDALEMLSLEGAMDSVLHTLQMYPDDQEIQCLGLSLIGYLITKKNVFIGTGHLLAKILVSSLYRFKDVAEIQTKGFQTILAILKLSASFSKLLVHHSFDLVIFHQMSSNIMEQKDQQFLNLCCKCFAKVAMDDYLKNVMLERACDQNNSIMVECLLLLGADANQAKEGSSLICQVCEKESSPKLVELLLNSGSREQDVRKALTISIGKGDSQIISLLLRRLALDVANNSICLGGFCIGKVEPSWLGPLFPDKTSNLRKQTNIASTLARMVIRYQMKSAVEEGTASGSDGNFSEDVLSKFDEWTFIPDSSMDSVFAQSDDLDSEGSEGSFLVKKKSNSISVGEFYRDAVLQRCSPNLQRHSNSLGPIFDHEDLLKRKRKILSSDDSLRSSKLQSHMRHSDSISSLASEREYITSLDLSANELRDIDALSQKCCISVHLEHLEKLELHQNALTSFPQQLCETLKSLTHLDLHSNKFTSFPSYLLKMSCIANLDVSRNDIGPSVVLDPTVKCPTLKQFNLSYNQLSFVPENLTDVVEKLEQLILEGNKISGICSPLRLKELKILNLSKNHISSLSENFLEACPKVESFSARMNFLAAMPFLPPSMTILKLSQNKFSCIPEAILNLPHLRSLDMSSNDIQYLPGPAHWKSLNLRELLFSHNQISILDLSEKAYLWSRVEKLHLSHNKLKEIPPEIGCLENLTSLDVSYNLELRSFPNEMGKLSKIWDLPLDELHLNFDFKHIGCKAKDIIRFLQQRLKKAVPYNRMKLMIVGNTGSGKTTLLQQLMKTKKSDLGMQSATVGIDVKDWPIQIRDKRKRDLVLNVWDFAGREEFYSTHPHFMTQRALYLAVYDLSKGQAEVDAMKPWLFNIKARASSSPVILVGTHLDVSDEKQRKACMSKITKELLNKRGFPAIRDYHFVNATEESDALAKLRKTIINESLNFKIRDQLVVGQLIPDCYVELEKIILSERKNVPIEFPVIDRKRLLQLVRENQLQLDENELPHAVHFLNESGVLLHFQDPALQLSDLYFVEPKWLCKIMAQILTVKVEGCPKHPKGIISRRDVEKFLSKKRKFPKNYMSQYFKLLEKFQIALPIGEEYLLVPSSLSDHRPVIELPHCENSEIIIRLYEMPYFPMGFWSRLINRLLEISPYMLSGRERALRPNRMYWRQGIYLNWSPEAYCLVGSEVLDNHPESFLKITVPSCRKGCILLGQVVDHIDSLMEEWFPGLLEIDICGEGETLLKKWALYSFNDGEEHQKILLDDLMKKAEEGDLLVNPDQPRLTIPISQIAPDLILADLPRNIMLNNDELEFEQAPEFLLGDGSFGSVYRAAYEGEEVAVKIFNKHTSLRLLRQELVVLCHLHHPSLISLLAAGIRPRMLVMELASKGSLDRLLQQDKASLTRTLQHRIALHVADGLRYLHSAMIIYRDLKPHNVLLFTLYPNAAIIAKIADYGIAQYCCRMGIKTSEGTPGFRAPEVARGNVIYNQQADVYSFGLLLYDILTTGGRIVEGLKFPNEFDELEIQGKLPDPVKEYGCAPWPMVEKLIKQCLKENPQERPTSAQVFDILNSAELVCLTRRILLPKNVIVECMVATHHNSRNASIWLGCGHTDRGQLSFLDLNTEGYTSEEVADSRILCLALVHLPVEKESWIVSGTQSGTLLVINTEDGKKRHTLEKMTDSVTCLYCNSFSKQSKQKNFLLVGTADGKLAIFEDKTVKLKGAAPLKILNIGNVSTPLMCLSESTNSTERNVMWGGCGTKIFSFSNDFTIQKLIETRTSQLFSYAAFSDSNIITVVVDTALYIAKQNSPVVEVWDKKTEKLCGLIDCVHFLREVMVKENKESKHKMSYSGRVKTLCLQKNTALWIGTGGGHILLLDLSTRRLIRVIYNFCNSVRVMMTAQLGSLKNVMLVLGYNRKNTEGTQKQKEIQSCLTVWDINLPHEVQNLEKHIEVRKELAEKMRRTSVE
Sequence of cAMP-dependent protein kinase catalytic subunit PRKX (P51817 whole entry): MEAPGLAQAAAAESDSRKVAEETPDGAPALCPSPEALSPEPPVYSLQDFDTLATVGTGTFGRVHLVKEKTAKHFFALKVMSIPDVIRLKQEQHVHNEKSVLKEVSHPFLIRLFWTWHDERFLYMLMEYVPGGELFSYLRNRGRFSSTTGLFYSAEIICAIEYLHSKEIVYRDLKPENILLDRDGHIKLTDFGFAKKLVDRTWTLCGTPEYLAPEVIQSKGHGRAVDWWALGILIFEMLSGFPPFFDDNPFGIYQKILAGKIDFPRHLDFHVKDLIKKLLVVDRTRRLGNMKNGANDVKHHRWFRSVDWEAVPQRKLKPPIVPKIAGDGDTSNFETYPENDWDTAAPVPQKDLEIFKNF
Sequence of Nonstructural protein 1 (Q194T2 whole entry): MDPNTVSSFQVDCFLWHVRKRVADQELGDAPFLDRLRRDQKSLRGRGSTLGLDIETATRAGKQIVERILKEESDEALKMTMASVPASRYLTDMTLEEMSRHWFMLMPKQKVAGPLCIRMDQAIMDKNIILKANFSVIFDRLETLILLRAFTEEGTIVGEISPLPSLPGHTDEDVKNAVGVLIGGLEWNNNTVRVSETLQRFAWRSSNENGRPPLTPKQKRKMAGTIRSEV
Sequence of Vascular endothelial growth factor receptor 2 (P35968 whole entry): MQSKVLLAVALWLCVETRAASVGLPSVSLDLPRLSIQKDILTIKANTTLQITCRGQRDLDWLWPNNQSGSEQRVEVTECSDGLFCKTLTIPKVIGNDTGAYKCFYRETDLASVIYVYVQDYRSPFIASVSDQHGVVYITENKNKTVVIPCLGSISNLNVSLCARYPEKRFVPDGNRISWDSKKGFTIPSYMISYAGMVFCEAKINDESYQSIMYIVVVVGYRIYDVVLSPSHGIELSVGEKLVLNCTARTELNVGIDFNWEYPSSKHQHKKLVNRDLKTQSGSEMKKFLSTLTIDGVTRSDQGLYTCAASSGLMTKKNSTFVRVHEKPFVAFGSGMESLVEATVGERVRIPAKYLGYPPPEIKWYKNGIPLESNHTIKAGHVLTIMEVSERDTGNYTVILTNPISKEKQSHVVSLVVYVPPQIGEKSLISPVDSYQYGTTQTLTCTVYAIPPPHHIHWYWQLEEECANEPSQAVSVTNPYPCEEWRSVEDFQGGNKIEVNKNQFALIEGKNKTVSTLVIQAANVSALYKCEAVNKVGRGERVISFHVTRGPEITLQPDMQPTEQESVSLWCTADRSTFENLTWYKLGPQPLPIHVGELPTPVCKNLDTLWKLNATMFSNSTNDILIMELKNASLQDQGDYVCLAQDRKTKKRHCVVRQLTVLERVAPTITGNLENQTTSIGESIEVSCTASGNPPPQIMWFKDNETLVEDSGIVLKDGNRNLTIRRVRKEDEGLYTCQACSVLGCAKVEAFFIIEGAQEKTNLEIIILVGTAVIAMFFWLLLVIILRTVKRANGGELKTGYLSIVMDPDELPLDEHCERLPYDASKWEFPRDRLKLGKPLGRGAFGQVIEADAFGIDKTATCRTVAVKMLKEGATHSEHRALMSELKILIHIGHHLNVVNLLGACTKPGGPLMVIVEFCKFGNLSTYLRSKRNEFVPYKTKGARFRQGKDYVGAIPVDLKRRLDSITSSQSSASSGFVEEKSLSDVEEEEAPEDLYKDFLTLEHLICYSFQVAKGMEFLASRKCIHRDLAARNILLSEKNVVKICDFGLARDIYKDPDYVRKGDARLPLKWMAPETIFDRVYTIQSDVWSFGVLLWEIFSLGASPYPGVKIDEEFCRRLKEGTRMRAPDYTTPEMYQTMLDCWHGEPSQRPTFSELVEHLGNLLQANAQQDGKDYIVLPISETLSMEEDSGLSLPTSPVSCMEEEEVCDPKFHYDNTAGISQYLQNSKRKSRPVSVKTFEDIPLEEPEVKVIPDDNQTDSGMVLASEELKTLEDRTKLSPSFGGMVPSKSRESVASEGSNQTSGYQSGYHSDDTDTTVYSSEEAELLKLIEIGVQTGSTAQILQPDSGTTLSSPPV
Sequence of Dual specificity protein phosphatase 3 (P51452 whole entry): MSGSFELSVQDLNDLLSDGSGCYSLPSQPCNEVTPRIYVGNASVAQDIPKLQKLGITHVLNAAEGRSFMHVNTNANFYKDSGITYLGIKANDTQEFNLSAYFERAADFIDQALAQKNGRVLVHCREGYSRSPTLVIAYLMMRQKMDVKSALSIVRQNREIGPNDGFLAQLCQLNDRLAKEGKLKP

O=C(NNc1cc(N2CCCC2)nc(N2CCCC2)n1)c1ccc([N+](=O)[O-])cc1
IC50 [1]: 2120 nM (active) | IC50 [2]: 3370 nM (active)

O=C(Cc1cccs1)Nc1nc2ccccc2s1
Ki [3]: > 3980 nM (inactive) | Ki [4]: 5010 nM (active) | Ki [5]: 6310 nM (active) | Ki [6]: 2000 nM (active) | Ki [7]: 316 nM (active) | Ki [8]: > 2510 nM (inactive) | Ki [9]: > 2510 nM (inactive) | Ki [10]: 1260 nM (active) | Ki [11]: 794 nM (active) | Ki [12]: 501 nM (active) | Ki [13]: 501 nM (active) | Ki [14]: 1000 nM (active)

O=S(=O)(O)c1cccc2c(N=Nc3ccc(O)c4ncccc34)cccc12
IC50 [15]: 2280 nM (active) | AC50 (ORF 73): 64100 nM (active) | IC50 (Nonstructural protein 1): 4680 nM (active) | EC50 [16]: > 114000 nM (inactive) | EC50 [17]: > 114000 nM (inactive) | EC50 (HEK293): 5530 nM (active)
